Laboratory results published in patent US11667945B2, “Detection method and detection probe for colibactin and colibactin-producing bacteria” (priority 2017, dated 2023).
Where a SMILES comes first, the peptide text is derived from it. [ ]: non-standard residue; d: D form. The star is where a group is joined. Myristoyl = CCCCCCCCCCCCCC(=O)*; AMC = Cc1cc(=O)oc2cc(N*)ccc12

Tests used:
[1] = test system: enzyme encoded by ClbP gene; experiment: Detection of ClbP enzyme / colibactin-producing E. coli in lyophilized fecal samples by fluorescent probe (Example 3); format: biochemical, Escherichia coli; details: probe 20 μM, lyophilized human feces suspended in milliQ water, 37° C., 24 hours or more, after extraction and unextracted
Method: The feces samples (obtained from different 4 human subjects) lyophilized were each scooped 10 times by a spoon (about 40 mg) and suspended in milliQ water (200 μl). To the suspension, the 20 mM DMSO solution of probe 1 was added so as to obtain a final concentration of 20 μM (DMSO final concentration 0.1%). Thereafter, the suspension was shaken at 37° C. and 100 rpm for 24 hours or more. After the reaction, the reaction solution (200 μLS) was taken and centrifuged. The supernatant (200 μL) was directly subjected to detection performed at λex380 mm/λem460 mm (unextracted). The reaction solution (200 μL) was newly taken, sufficiently suspended by adding ethyl acetate (500 μL) and centrifuged. The ethyl acetate layer (450 μL) of the supernatant was collected and concentrated. To the concentrate, milliQ water (200 μL) was added. The mixture was sufficiently suspended and centrifuged. The supernatant (200 μL) was subjected to detection performed at λex380 mm/λem460 mm (after extraction). In FIG. 2, the detection results of 4 fecal samples are shown separately by “feces is present_1” to “feces is present_4”, respectively.

[2] = test system: colibactin-producing Escherichia coli; experiment: Assay using cultured Escherichia coli, colibactin-producing versus non-producing strains (Example 4); format: cell-based; details: probe 20 μM in LB medium, 37° C., 24 hours or more, particularly after extraction; producers 5263, 5491, Nissle vs non-producers 1246, 1649T
Method: As Escherichia coli not producing colibactin, 1246 strain and 1649T strain were used. As the colibactin-producing Escherichia coli, 5263 strain, 5491 strain and Nissle strain were used.
Escherichia coli were cultured overnight and seeded (20 μL) in LB medium (2 to 4 mL) and further a 20 mM DMSO solution of probe 1 was added thereto so as to obtain a final concentration of 20 μM (DMSO final concentration: 0.1%), and cultured at 37° C. and 100 rpm for 24 hours or more while shaking. After reaction, the reaction solution (200 μL) was taken and centrifuged. The supernatant (200 μL) was directly subjected to detection performed at λex 380 mm/λem 460 mm (unextracted). The reaction solution (200 μL) was newly taken and ethyl acetate (500 μL) was added thereto. After sufficiently suspended, the suspension was centrifuged. The ethyl acetate layer (450 μL) of the supernatant was recovered and concentrated. To the concentrate, milliQ water (200 μL) was added. The mixture was sufficiently suspended and centrifuged. The supernatant (200 μL) was subjected to detection (after extraction) performed at λex 380 mm/λem 460 mm.

[3] = test system: colibactin positive bacterium; experiment: Detection of colibactin positive bacterium using cultured fecal samples (Example 6); format: cell-based, Escherichia coli; details: colonies from human fecal samples, LB with 100 μM probe, 24 hours, λex 380 mm/λem 460 mm, compared with PCR
Method: Fecal samples obtained from human subjects were dissolved in water, applied to a plate comprising a MacConkey medium and cultured at 37° C. for 12 hours. The resultant red-purple colony was picked up, inoculated in LB liquid medium comprising 100 μM probe I and cultured for 24 hours. Fluorescence (λex 380 mm/λem 460 mm) was measured by a plate reader. These samples were checked for the presence or absence of a colibactin positive bacterium by a PCR method in the same manner as in Example 5 and the correlation with the fluorescence intensity generated from probe I was examined.

[4] = test system: colibactin positive bacterium; experiment: Detection of colibactin positive bacterium among Escherichia coli separated from colorectal tissue samples (Example 5); format: cell-based; details: 100 μM probe in LB, 37° C., 24 hours, threshold 100; 100 PCR-positive and 100 PCR-negative samples
Description: In this Example, detection of a colibactin positive bacterium was tried by applying probe I to Escherichia coli bacteria separated from colon tissue samples (n=100) in which colibactin biosynthetic genes had been detected by PCR methods and colon tissue samples (n=100) in which colibactin biosynthetic genes had not been detected.
Escherichia coli bacteria were separated by homogenizing a human colorectal tissue sample with physiological saline and smearing the homogenized sample onto a MacConkey plate medium, and culturing it. […] Based on the presence or absence of an amplified fragment as an index, a colibactin positive bacterium or not was evaluated.
To evaluate the sensitivity and accuracy for detecting a colibactin positive bacterium by probe I, 100 Escherichia coli bacterium samples were prepared by separating Escherichia coli bacterium from colon tissue samples in which a colibactin positive bacterium was detected by the above PCR method; and 100 Escherichia coli bacterium samples separated were prepared by separating Escherichia coli bacterium from colon tissue samples in which a colibactin positive bacterium was not detected by the above PCR method. […] Measurement at λex 380 mm/λem 460 mm was carried out by a plate reader. The difference in fluorescence intensity between assay A and assay B (background) was obtained and the threshold was determined as 100. […]

Structure (SMILES)	fluorescence of the probe on contact with feces (ClbP dependent cleavage to AMC) [1]	detection of colibactin-producing Escherichia coli based on the fluorescence intensity of the probe [2]	detection of colibactin positive bacterium present in fecal samples [3]	accuracy of detecting a colibactin positive bacterium [4]	false positive rate (a rate determining a negative bacterium as a positive bacterium) [4]
CCCCCCCCCCCCCC(=O)NC(CC(N)=O)C(=O)Nc1ccc2c(C)cc(=O)oc2c1 (stereo not drawn) [probe 1]	fluorescence was regained	colibactin-producing Escherichia coli can be detected	highly sensitively and accurately detected	100%	less than 1%
CCCCCCCCCCCCCC(=O)N[C@H](CC(N)=O)C(=O)N[C@@H](C)C(=O)Nc1ccc2c(C)cc(=O)oc2c1 [probe 2] (Myristoyl-[dN]-Ala-{AMC})	same results	–	–	–	–
